Experimental findings from patent US20040062780A1, “Compositions and methods useful for the reduction of fine lines and wrinkles” (priority 2002, published 2004) are described below.

Data set [1] is described as follows: Dissolution of compounds in PEG-12 GDO lipid. In kind it is physicochemical. The protocol:
It will be appreciated that, while liposomes form spontaneously at the temperature of formation, cooling of liposomes after formation results in liposomes in trapped kinetic states. To minimize distortions in liposome structure upon such cooling, sterols such as cholesterol may be mixed with the lipid before liposome formation. It has been observed that cholesterol may be dissolved in PEG-12 GDO at up to about 10 percent by weight.
Tretinoin (all-trans retinoic acid), 6 mg, was dissolved in 500 μl of PEG-12 Glyceryl Dioleate. […] Distilled water, […], was added to the mixture and gently mixed. This yielded a concentration of 1 mg/ml. […] This solution can easily be incorporated into a cream, gel or lotion dosage form.

A short description of data set [2]: Spontaneous liposome formation of single lipids mixed with aqueous solution. It counts as physicochemical. The protocol: Lipids were tested at 2 weight percent in aqueous solution. Note that GDL means glycerol dilaurate, GDO means glycerol dioleate, GDM means glycerol dimyristate, GDP means glycerol dipalmitate, and GDS means glycerol distearate. For each lipid, the number after “PEG” indicates the numbers of C2H4O subunits in the PEG chain. The unsaturated dioleate lipids have similar packing parameters to the saturated dimyristate lipids.
Single lipids were tested for their ability to spontaneously form liposomes when mixed with an aqueous solution. PEG-12 GDO was obtained from Global 7 (New Jersey). All other lipids were synthesized for the experiment (see Table 1). For each experiment, water and lipid were separately equilibrated at the appropriate temperature. Two weight percent lipid was added to the aqueous solution, and the solution was analyzed for the presence of liposomes by optical light microscopy, cryo TEM, freeze fracture TEM, or hot stage microscopy.

Take `CC1=C(/C=C/C(C)=C/C=C/C(C)=C/C(=O)O)C(C)(C)CCC1` [Tretinoin, all-trans retinoic acid, reference compound]: the “dissolution in PEG-12 Glyceryl Dioleate” value in data set [1] (6 mg in 500 μl of PEG-12 Glyceryl Dioleate) is “Dissolution was complete”.
With PEG-12 Glyceryl Dioleate [PEG-12 GDO], the “Spontaneous Liposomes at 20° C.” value in data set [2] (2 weight percent lipid in aqueous solution, 20° C.) is recorded as “YES”. Besides, in data set [2] (2 weight percent lipid in aqueous solution, 37° C.), the “Spontaneous Liposomes at 37° C.” value is “YES”. Besides, the “Spontaneous Liposomes at 60° C.” value in data set [2] (2 weight percent lipid in aqueous solution, 60° C.) was “YES”. Further, the spontaneous liposome formation result in data set [2] (all temperatures tested) is reported as “spontaneously forms liposomes at all temperatures tested”.
On to `CC(C)CCC[C@@H](C)[C@H]1CC[C@H]2[C@@H]3CC=C4C[C@@H](O)CC[C@]4(C)[C@H]3CC[C@]12C` [cholesterol], for which the “amount dissolved in PEG-12 GDO” value in data set [1] (in PEG-12 GDO) is listed as “up to 10 percent by weight”.
